Results taken from patent publication US5846755A (priority 1995, dated 1998).

What was measured:
[1] = target: enzyme purified from the venom of Crotalus Adamanteus (hemorrhagin) (Crotalus adamanteus, UniProt P34179); assay type: biochemical; details: for IC50: read-out: IC50
[2] = target: neutrophil collagenase (recombinant human) (Homo sapiens, UniProt P22894); test: In vitro assays on recombinant human collagenase; assay type: biochemical
Method: Using the same enzymatic determination already described (fluorimetric detection of cleavage of a substrate peptide containing a fluorescent moiety), some of the compounds were tested on neutrophil collagenase, an enzyme described as participating in any kind of inflammatory reaction in mammalian bodies. In this case, the purified enxzyme was also obtained by recombinant means.

[3] = system: release of active TNF in human cell culture medium (Jurkat); test: Release of active TNF from Jurkat cells (ELISA); assay type: cell-based; details: 72 hours incubation, stimulated with PMA and ionophore calcium
Method: It is well known that TNF plays a fundamental role in certain physiological defense responses but, on the other hand, causes severe damage when it is released into circulation in excessive amounts or for prolonged periods. […] An attempt was, therefore, made to see whether certain compounds selected from among those of the present application and of WO 92/06108 were capable of blocking the release of active TNF in human cell culture medium (Jurkat). The cells were incubated in the presence or in the absence of metalloproteinase inhibitor for 72 hours; the release of TNF was then stimulated using activators (PMA and ionophore calcium), and the Factor was dosed into the culture medium using the ELISA test (Genzyme).

[4] = system: blood cells that migrate to the inflamed site (lymphocytes, neutrophils, eosinophils, macrophages); test: Hypereosinophilia induced in rats by Sephadex G-200 resin; assay type: in vivo; details: hypereosinophilia induced by Sephadex G-200 resin, result in words
Method: As the metalloproteinases produced by the cells of mammals are of fundamental importance to allow the cells to migrate from one tissue to another within the organism, Compounds 9, 18, 25 and 31 of the present invention, together with the compounds Z--Pro--Leu--Cyt and FUR--Leu--Cyt (Examples 1 and 8, respectively, of WO 92/06018) were tested on hypereosinophilia induced in rats by Sephadex G-200 resin.

[5] = target: T1, recombinant human gelatinase A (Homo sapiens, UniProt P08253); test: In vitro effects on recombinant human gelatinase A; assay type: biochemical
T1 construct: purchased Strangeways Laboratories, Cambridge, UK
T1 sequence (P08253 110-660): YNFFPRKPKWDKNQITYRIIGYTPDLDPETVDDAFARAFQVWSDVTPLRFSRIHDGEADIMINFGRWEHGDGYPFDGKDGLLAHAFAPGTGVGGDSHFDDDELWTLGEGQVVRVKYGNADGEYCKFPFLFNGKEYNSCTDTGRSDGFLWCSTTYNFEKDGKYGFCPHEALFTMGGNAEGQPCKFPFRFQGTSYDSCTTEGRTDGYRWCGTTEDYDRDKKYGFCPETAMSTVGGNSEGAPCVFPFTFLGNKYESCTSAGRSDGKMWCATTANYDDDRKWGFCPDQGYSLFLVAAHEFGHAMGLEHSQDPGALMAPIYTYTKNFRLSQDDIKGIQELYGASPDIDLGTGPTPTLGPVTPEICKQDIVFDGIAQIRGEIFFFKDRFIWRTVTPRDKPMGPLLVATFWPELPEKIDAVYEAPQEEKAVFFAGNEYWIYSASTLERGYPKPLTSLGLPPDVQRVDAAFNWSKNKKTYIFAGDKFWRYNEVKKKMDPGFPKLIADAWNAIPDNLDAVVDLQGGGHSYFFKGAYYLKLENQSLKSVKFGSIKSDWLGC
Description: Assays on human gelatinase A, an enzyme released in high concentration by any kind of tumor cells during the process of metastatization, and recognized also as a product of stimulated cells in many pathological processes, have been performed using the protein obtained by recombinant biotechnology (Strangeways Laboratories, Cambridge, UK). The enzymatic activity has been followed over time, measuring the amount of fluorescent substrate cleaved by the enzyme, in the presence or absence of synthetic compounds (Perkin Elmer L50 B fluorimeter).

[6] = target: T2, recombinant human gelatinase B (Homo sapiens, UniProt P14780); test: In vitro effects on recombinant human gelatinase B; assay type: biochemical
T2 construct: purchased Stangeways Laboratories, Cambridge, UK (so in the source)
T2 sequence (P14780 94-707): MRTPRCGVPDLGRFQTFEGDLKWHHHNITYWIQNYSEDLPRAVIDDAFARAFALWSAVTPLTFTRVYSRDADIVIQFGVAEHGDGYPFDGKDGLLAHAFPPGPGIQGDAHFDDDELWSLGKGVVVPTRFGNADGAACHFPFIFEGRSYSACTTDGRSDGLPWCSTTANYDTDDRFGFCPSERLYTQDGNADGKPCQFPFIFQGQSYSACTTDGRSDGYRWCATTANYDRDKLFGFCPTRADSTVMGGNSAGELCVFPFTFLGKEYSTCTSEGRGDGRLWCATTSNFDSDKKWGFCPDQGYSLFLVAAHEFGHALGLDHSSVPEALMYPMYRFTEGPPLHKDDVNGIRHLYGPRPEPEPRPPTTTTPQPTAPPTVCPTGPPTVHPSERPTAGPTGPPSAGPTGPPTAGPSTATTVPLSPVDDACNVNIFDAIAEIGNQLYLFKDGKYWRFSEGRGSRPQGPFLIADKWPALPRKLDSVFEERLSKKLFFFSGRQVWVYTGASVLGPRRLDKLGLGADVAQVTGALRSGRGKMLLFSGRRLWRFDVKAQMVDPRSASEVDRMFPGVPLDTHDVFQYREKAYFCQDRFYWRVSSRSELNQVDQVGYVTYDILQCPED
Method: Assays on human gelatinase B, another enzyme released by tumor cells, were performed using also, in this case, the protein obtained by recombinant biotechnology Stangeways Laboratories, Cambridge, UK). As usual, the enzymatic activity was followed over time, measuring the amount of fluorescent substrate cleaved by the enzyme, in the presence or absence of synthetic compounds (Perkin Elmer L50 B fluorimeter).

[7] = system: hemorrhages and lethal results induced by snake venom; test: Inhibition of hemorrhages and lethality induced by snake venom in mice; assay type: in vivo
[8] = system: human melanoma cell line VMM-5; test: Matrigel-based invasion assay with human melanoma cells; assay type: cell-based; details: Concentration 500 micro M, VMM-5 cells, 20 hours
Description: In order to obtain information about the possible interference of the synthesized compounds on the ability of tumor cells to migrate through the body (metastatization), the human melanoma cell line VMM-5 was used in the matrigel-based invasion assay, in which basal membrane matrigel (Becton Dickinson) and tissue culture inserts with 8 microns pore size in 24 well tissue culture plates were used as Boyden chambers. The chambers were coated with diluted matrigel and allowed to dry overnight; they were then reconstituted with serum free medium, and melanoma cells (4,000,000/ml) were dispensed in each insert. In the lower chambers, a chemoattractant was included. The chambers were finally placed in a humidified CO2 incubator at 37° C., and incubated for 20 hours. The inserts were dried and the cells on the upper surface removed. The polycarbonate filters were fixed with methanol, stained with hematoxylin and eosin, and counted with a microscope. Inhibition of migration due to compounds has been expressed as a percentage of the total number of migrated cells in the control chambers containing only the buffer in which the compounds were dissolved.

[9] = Resistance to proteolytic activity in stomach juices (rat stomach homogenate, HPLC); details: 37° C.
Method: To check if the compounds of the present invention are resistant to proteolytic activity in stomach juices and, therefore, could be administered orally, the stomachs of fasting rats were homogenized in physiological solutions (1:1). 300 microliters of solutions of the compounds (1 mg/ml of saline) were incubated with 0.5 ml of stomach homogenates (37° C.).

[10] = target: metalloproteinase purified from snake venom, Echis Carinatus; test: Inhibition of metalloproteinase purified from Echis Carinatus venom; assay type: biochemical; details: Table 5; unit M
[11] = target: metalloproteinase purified from snake venom, Bothrops Atrox; test: Inhibition of metalloproteinase purified from Bothrops Atrox venom; assay type: biochemical; details: Table 5; unit M
[12] = target: metalloproteinase purified from snake venom, Bothrops Jararaca; test: Inhibition of metalloproteinase purified from Bothrops Jararaca venom; assay type: biochemical; details: Table 5; unit M
[13] = system: TNF release from another strain of human cells in culture (clone T); test: TNF release from human cells in culture (clone T); assay type: cell-based
[14] = system: microhemorrhages induced by histamine; test: Histamine-induced microhemorrhages (capillary permeability) in hamsters; assay type: in vivo

Chain of neutrophil collagenase (recombinant human) (P22894 101-467): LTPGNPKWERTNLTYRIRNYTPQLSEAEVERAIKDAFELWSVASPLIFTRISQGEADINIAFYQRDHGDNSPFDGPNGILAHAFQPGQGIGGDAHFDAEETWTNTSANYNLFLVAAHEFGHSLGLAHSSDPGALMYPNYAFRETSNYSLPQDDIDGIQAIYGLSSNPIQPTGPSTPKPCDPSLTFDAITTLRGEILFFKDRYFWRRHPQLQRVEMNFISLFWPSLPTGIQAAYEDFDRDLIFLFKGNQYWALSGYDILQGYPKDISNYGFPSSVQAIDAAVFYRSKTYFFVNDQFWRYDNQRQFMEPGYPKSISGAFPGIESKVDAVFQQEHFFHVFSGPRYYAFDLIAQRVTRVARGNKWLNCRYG
Chain of enzyme purified from the venom of Crotalus Adamanteus (hemorrhagin) (P34179 whole entry, looked up): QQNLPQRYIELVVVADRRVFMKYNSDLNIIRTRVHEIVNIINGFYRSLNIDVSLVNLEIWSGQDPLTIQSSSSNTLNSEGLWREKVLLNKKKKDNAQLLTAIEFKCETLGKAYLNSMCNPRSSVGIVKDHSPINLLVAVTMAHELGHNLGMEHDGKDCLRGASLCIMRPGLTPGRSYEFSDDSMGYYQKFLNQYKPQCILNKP

Compound	IC50 [1] [µM]	IC50 of inhibition of TNF release by cells [3]	Effect on number of blood cells that migrate to the inflamed site [4]	% Inhibition of Invasion [8] [%]	IC50 [10] [µM]	IC50 [11] [µM]	IC50 [12] [µM]	further results
4-MBZ--(L)--Trp--(S)--Cyt--OH [Compound 25]	0.054	around 0.7 mcg/ml	interfered with the number of blood cells that migrate to the inflamed site					% Inhibition ([2]; Concentration 5.2 × 10^-5 M): 23%
CC(C)C[C@H](NC(=O)c1ccco1)C(=O)N[C@@H](Cc1c[nH]c2ccccc12)C(=O)O [2-FUR--Leu--Trp]								In vitro inhibition of the metalloproteinase purified from the venom of Crotalus Adamanteus [1]: excellent in vitro inhibitor; % Inhibition ([5]; Concentration 1.0 × 10^-7 M): 41%; % Inhibition ([6]; Concentration 1.0 × 10^-5 M): 22%; % Inhibition ([2]; Concentration 2.4 × 10^-5 M): 12%; Protection of mice from death by injection of the venom ([7]; dose of 33 mcg/mouse, even when administered after the venom (up to 30 minutes)): capable of protecting the mice from death; Neutralizing the toxic effects of hemorrhagic factors of various snake venom ([7]; mice, compound incubated with the hemorrhagic factors): capable of neutralizing the toxic effects thereof
CC(C)C[C@H](NC(=O)c1ccccn1)C(=O)N1Cc2[nH]c3ccccc3c2C[C@H]1C(=O)O [Compound 9, PIC--(L)--Leu--(S)--Cyt--OH]	0.027	around 8 mcg/ml	interfered with the number of blood cells that migrate to the inflamed site	94				% Inhibition ([6]; Concentration 1.1 × 10^-5 M): 20%
O=C(N[C@@H](CC1CCCCC1)C(=O)N1Cc2[nH]c3ccccc3c2C[C@H]1C(=O)O)c1ccco1 [Compound 10, 2-FUR--(L)--Cha--(S)--Cyt--OH]	0.025	around 200 mcg/ml		99				% Inhibition ([6]; Concentration 1.1 × 10^-5 M): 32%; % Inhibition ([2]; Concentration 2.1 × 10^-5 M): 51%; Residue after 60 Minutes ([9]; 60 minutes): 100%; Residue after 120 Minutes ([9]; 120 minutes): > 95%
CC(C)C[C@H](NC(=O)c1cc2ccccc2o1)C(=O)N1Cc2[nH]c3ccccc3c2C[C@H]1C(=O)O [Compound 15, 2-BZF--(L)--Leu--(S)--Cyt--OH]	0.04				2	8.2	14	
CC(C)C[C@H](NC(=O)c1cnccn1)C(=O)N1Cc2[nH]c3ccccc3c2C[C@H]1C(=O)O [Compound 18, 2-PZC--(L)--Leu--(S)--Cyt--OH]	0.21		interfered with the number of blood cells that migrate to the inflamed site		7	5.2	8.4	
Cc1ccc(C(=O)N[C@@H](CC(C)C)C(=O)N2Cc3[nH]c4ccccc4c3C[C@H]2C(=O)O)cn1 [Compound 22, 6-MNC--(L)--Leu--(S)--Cyt--OH]	0.11				14	3.2	21	% Inhibition ([5]; Concentration 8.0 × 10^-7 M): 47%
FUR--Leu--Cyt			interfered with the number of blood cells that migrate to the inflamed site	69				
Z--Pro--Leu--Cyt		around 5 mcg/ml	interfered with the number of blood cells that migrate to the inflamed site	70				% Inhibition ([5]; Concentration 1.8 × 10^-7 M): 64%; % Inhibition ([6]; Concentration 9.0 × 10^-6 M): 32%; % Inhibition ([2]; Concentration 1.8 × 10^-5 M): 23%; IC50 of inhibition of TNF release [13]: lower than 1 mcg/ml; Dose capable of blocking 50% of effects ([14]; administered orally): around 50 mcg/Kg; Dose capable of blocking 50% of effects ([14]; injected intravenously): around 50 mcg/Kg; Blocking microhemorrhages induced by histamine ([14]; result in words): extremely powerful in blocking microhemorrhages induced by histamine
